Laboratory results as given in patent EP0745390A2, “Polymeric prodrugs for beta-lactamase and uses thereof” (priority 1995, dated 1996).

Legend:
bL = bL (Enterobacter cloacae, UniProt P05364); type: biochemical; settings: 3-4 independently run experiments
[1] = in mice; cited from earlier work
[2] = test system: H2981 human lung adenocarcinoma cell line; assay: In vitro cytotoxicity assay, incorporation of [^3H] thymidine into DNA; type: cell-based; settings: H2981 cells, non-conjugate treated, doxorubicin instead of PEG-AC-Dox (Figure 3)
[3] = Toxicity in nude mice (maximum tolerated dose), single intravenous injection

bL, sequence (P05364 21-381): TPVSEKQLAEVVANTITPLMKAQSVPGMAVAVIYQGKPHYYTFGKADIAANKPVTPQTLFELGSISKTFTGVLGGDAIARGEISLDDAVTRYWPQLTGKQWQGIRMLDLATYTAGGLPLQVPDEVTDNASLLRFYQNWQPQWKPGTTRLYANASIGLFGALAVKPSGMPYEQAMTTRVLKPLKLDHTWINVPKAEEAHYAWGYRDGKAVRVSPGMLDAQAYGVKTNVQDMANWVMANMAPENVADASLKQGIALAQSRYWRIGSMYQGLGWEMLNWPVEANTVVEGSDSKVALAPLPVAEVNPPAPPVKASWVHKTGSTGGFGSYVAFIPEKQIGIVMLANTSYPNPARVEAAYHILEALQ

Structure (SMILES) | Vmax (bL; hydrolysis by bL in phosphate buffered saline containing bovine serum albumin) [µmol/mim /mg] | Km (bL; hydrolysis by bL) [µM] | kcat (bL; hydrolysis by bL) [s⁻¹] | initial half life [1] [min] | IC50 [2] [nM] | maximum tolerated dose ([3]; nude mice, single intravenous injection, dose giving < 20% weight loss, no deaths) [µmol/kg body weight] | MTD ([3]; nude, mouse, in vivo, iv) [mg/kg]
COc1cccc2c1C(=O)c1c(O)c3c(c(O)c1C2=O)C[C@@](O)(C(=O)CO)C[C@@H]3O[C@H]1C[C@H](NC(=O)OCC2=C(C(=O)O)N3C(=O)[C@@H](NC(=O)Cc4ccccc4)[C@H]3SC2)[C@H](O)[C@H](C)O1 [C-Dox, 7-phenylacetylcephalosporin doxorubicin] | 400 ± 96 | 46 ± 6 | 280 ± 67 | – | – | – | –
COc1cccc2c1C(=O)c1c(O)c3c(c(O)c1C2=O)C[C@@](O)(C(=O)CO)C[C@@H]3O[C@H]1C[C@H](N)[C@H](O)[C@H](C)O1 [doxorubicin] | – | – | – | 2 | 100 to 200 | 13.8 | 8
